The conditions of data set [1]: Crystal; DTA.
The nature of data set [2]: Molar enthalpy of transition or fusion. The conditions noted are these: Crystal; DSC.

Numbers after ± are expanded uncertainties.

For `NC(=O)c1ccccc1O` [2-hydroxybenzamide], the Normal melting temperature in data set [1] is 138.70 ± 1.1 °C. Moreover, the “Molar enthalpy of transition or fusion” value in data set [2] was found to be 29 ± 0.8 kJ/mol.

(Values after the NIST ThermoML archive (doi:10.1021/je060178m).)
